Measured values: patent US8481732B2 (Incyte Corporation, priority 2009, dated 2013)

biological target: T1, histamine H4 receptor (Homo sapiens, UniProt Q9H3N8); assay: H4 Membrane Binding Assay (3H-Histamine displacement); settings: membranes of recombinant HEK293SFM cells, 10 nM 3H-Histamine, 1.5 hr at room temperature
T1 construct: expressed in transfected cells; host or cells: HEK293SFM cells (membrane preparation)
Experimental: Recombinant HEK293SFM cells expressing human H1, H2, H3, H4 or mouse H4 were harvested (Packard Filtermate Harvester) in ice-cold Tris-HCl, (50 mM, pH 7.5, Sigma) with protease inhibitors (Roche) and homogenized with a Polytron homogenizer. The homogenate was centrifuged for 5 minutes at 1000 g to remove nuclei and unbroken cells. The supernatant was centrifuged at 50000 g for 30 minutes, and the resulting pellet was re-suspended in ice-cold Tris-HCl (50 mM, pH 7.5). […] Nonspecific binding was determined by inclusion of 1000× unlabeled ligands. The bound radioactivity was separated by filtration through polyethyleneimine-treated GF/B filters (Perkin Elmer). The filters were washed eight times with ice-cold Tris-HCl (50 mM, pH 7.5), and radioactivity retained on the filters was measured by liquid scintillation counting. The binding data were evaluated with Prism.

SMILES | IC50
Cc1ccc([C@H](C)NC(=O)c2ccc3c(N4CCN(C)CC4)nc(N)nc3c2)cc1 [Example 32, 2-Amino-N-[(1S)-1-(4-methylphenyl)ethyl]-4-(4-methylpiperazin-1-yl)quinazoline-7-carboxamide] | 334 nM
CN1CCN(c2cc(-c3ccc4c(c3)CN(C(=O)C3CCC3)CC4)nc(N)n2)CC1 [Example 3, 4-[2-(Cyclobutylcarbonyl)-1,2,3,4-tetrahydroisoquinolin-7-yl]-6-(4-methylpiperazin-1-yl)pyrimidin-2-amine] | 170 nM
Cc1cc2c(cc1-c1cc(N3CCN(C)CC3)nc(N)n1)CN(C(=O)NC1CCCCC1)CC2 [Example 78, 7-[2-Amino-6-(4-methylpiperazin-1-yl)pyrimidin-4-yl]-N-cyclohexyl-6-methyl-3,4-dihydroisoquinoline-2(1H)-carboxamide] | 250 nM
CN1CCN(c2nc(N)nc3cc(C(=O)NC(Cc4ccc(-c5ccccc5)s4)C(=O)N(C)C)ccc23)CC1 (centres unmarked) [Example 147, 2-Amino-N-{2-(dimethylamino)-2-oxo-1-[(5-phenyl-2-thienyl)methyl]ethyl}-4-(4-methylpiperazin-1-yl)quinazoline-7-carboxamide] | 71 nM
CN1CCN(c2nc(N)nc3cc(C(=O)NC(Cc4cccc(Oc5ccccc5)c4)C(=O)N(C)C)ccc23)CC1 (centres unmarked) [Example 146, 2-Amino-N-[2-(dimethylamino)-2-oxo-1-(3-phenoxybenzyl)ethyl]-4-(4-methylpiperazin-1-yl)quinazoline-7-carboxamide] | 65 nM
CC(C)OC(=O)N1CCC(CC(=O)N2CCc3ccc(-c4cc(N5CCN(C)CC5)nc(N)n4)cc3C2)CC1 [Example 71, Isopropyl 4-{2-[7-[2-amino-6-(4-methylpiperazin-1-yl)pyrimidin-4-yl]-3,4-dihydroisoquinolin-2(1H)-yl]-2-oxoethyl}piperidine-1-carboxylate] | 66 nM
CC(NC(=O)N1CCc2ccc(-c3cc(N4CCN(C)CC4)nc(N)n3)cc2C1)c1ccccc1 (centres unmarked) [Example 51, 7-[2-Amino-6-(4-methylpiperazin-1-yl)pyrimidin-4-yl]-N-(1-phenylethyl)-3,4-dihydroisoquinoline-2(1H)-carboxamide] | 63 nM
Cc1ccc(C#N)c(Oc2cccc(CC(NC(=O)c3ccc4c(N5CCN(C)CC5)nc(N)nc4c3)C(=O)N(C)C)c2)n1 (centres unmarked) [Example 173, 2-Amino-N-[1-{3-[(3-cyano-6-methylpyridin-2-yl)oxy]benzyl}-2-(dimethylamino)-2-oxoethyl]-4-(4-methylpiperazin-1-yl)quinazoline-7-carboxamide] | 67 nM
CN1CCN(c2cc(-c3ccc4c(c3)CN(C(=O)CCc3ccccc3)CC4)nc(N)n2)CC1 [Example 101, 4-(4-Methylpiperazin-1-yl)-6-[2-(3-phenylpropanoyl)-1,2,3,4-tetrahydroisoquinolin-7-yl]pyrimidin-2-amine] | 99 nM
CN1CCN(c2cc(-c3ccc4c(c3)CN(C(=O)Cc3cncc(C#N)c3)CC4)nc(N)n2)CC1 [Example 125, 5-{2-[7-[2-Amino-6-(4-methylpiperazin-1-yl)pyrimidin-4-yl]-3,4-dihydroisoquinolin-2(1H)-yl]-2-oxoethyl}nicotinonitrile] | 92 nM
CN1CCN(c2nc(N)nc3cc(C(=O)NC(Cc4nc5ccccc5s4)C(=O)N(C)C)ccc23)CC1 (centres unmarked) [Example 144, 2-Amino-N-[1-(1,3-benzothiazol-2-ylmethyl)-2-(dimethylamino)-2-oxoethyl]-4-(4-methylpiperazin-1-yl)quinazoline-7-carboxamide] | 190 nM
COC(=O)NC(CC(=O)N1CCc2ccc(-c3cc(N4CCN(C)CC4)nc(N)n3)cc2C1)C1CCCCC1 (centres unmarked) [Example 114, Methyl{3-[7-[2-amino-6-(4-methylpiperazin-1-yl)pyrimidin-4-yl]-3,4-dihydroisoquinolin-2(1H)-yl]-1-cyclohexyl-3-oxopropyl}carbamate] | 109 nM
CN1CCN(c2nc(N)nc3cc(C(=O)N[C@@H](Cc4ccc(-c5ccccn5)cc4)C(=O)N(C)C)ccc23)CC1 [Example 160, 2-Amino-N-[(1S)-2-(dimethylamino)-2-oxo-1-(4-pyridin-2-ylbenzyl)ethyl]-4-(4-methylpiperazin-1-yl)quinazoline-7-carboxamide] | 52 nM
CCS(=O)(=O)N1CCC(CC(=O)N2CCc3ccc(-c4cc(N5CCN(C)CC5)nc(N)n4)cc3C2)CC1 [Example 74, 4-(2-{[1-(Ethylsulfonyl)piperidin-4-yl]acetyl}-1,2,3,4-tetrahydroisoquinolin-7-yl)-6-(4-methylpiperazin-1-yl)pyrimidin-2-amine] | 123 nM

These reach a lower IC50. Values come first.

IC50 | SMILES
44 nM | CN1CCN(c2cc(-c3cc4c(cc3F)CCN(C(=O)Nc3ccc(Cl)cc3)C4)nc(N)n2)CC1 [Example 75, 7-[2-Amino-6-(4-methylpiperazin-1-yl)pyrimidin-4-yl]-N-(4-chlorophenyl)-6-fluoro-3,4-dihydroisoquinoline-2(1H)-carboxamide]
43.3 nM | CN1CCN(c2cc(-c3ccc4c(c3)CN(C(=O)OC3CCCC3)CC4)nc(N)n2)CC1 [Example 7, Cyclopentyl 7-[2-amino-6-(4-methylpiperazin-1-yl)pyrimidin-4-yl]-3,4-dihydroisoquinoline-2(1H)-carboxylate]
43 nM | CC(C)OC(=O)N1CCc2ccc(-c3cc(N4CCN(C)CC4)nc(N)n3)cc2C1 [Example 11, Isopropyl 7-[2-amino-6-(4-methylpiperazin-1-yl)pyrimidin-4-yl]-3,4-dihydroisoquinoline-2(1H)-carboxylate]
40 nM | CC(C)c1ccc(CC(NC(=O)c2ccc3c(N4CCN(C)CC4)nc(N)nc3c2)C(=O)N(C)C)cc1 (centres unmarked) [Example 149, 2-Amino-N-[2-(dimethylamino)-1-(4-isopropylbenzyl)-2-oxoethyl]-4-(4-methylpiperazin-1-yl)quinazoline-7-carboxamide]
38 nM | CC(C)OC(=O)N1CCC(OC(=O)N2CCc3ccc(-c4cc(N5CCN(C)CC5)nc(N)n4)cc3C2)CC1 [Example 68, 1-(Isopropoxycarbonyl)piperidin-4-yl 7-[2-amino-6-(4-methylpiperazin-1-yl)pyrimidin-4-yl]-3,4-dihydroisoquinoline-2(1H)-carboxylate]
38 nM | CCOC(=O)N1CCC(OC(=O)N2CCc3ccc(-c4cc(N5CCN(C)CC5)nc(N)n4)cc3C2)CC1 [Example 116, 1-(Ethoxycarbonyl)piperidin-4-yl 7-[2-amino-6-(4-methylpiperazin-1-yl)pyrimidin-4-yl]-3,4-dihydroisoquinoline-2(1H)-carboxylate]
34 nM | Cc1ccc(C#N)c(Oc2cccc(C(C)NC(=O)c3ccc4c(N5CCN(C)CC5)nc(N)nc4c3)c2)n1 (centres unmarked) [Example 198, 2-Amino-N-(1-{3-[(3-cyano-6-methylpyridin-2-yl)oxy]phenyl}ethyl)-4-(4-methylpiperazin-1-yl)quinazoline-7-carboxamide]
24 nM | COC(=O)c1ccc(COc2ccc3c(c2)C(NC(=O)c2ccc4c(N5CCN(C)CC5)nc(N)nc4c2)CCC3)cc1 (centres unmarked) [Example 206, Methyl 4-((8-(2-amino-4-(4-methylpiperazin-1-yl)quinazoline-7-carboxamido)-5,6,7,8-tetrahydronaphthalen-2-yloxy)methyl)benzoate]
23 nM | COC(=O)c1ccc(Oc2cccc(CC(NC(=O)c3ccc4c(N5CCN(C)CC5)nc(N)nc4c3)C(=O)N(C)C)c2)cc1 (centres unmarked) [Example 169, Methyl 4-{3-[2-({[2-amino-4-(4-methylpiperazin-1-yl)quinazolin-7-yl]carbonyl}amino)-3-(dimethylamino)-3-oxopropyl]phenoxy}benzoate]
18 nM | CN1CCN(c2nc(N)nc3cc(C(=O)NC(Cc4cccc(OCc5cccc(C#N)c5)c4)C(=O)N(C)C)ccc23)CC1 (centres unmarked) [Example 175, 2-Amino-N-[1-{3-[(3-cyanobenzyl)oxy]benzyl}-2-(dimethylamino)-2-oxoethyl]-4-(4-methylpiperazin-1-yl)quinazoline-7-carboxamide]
18 nM | CN1CCN(c2nc(N)nc3cc(C(=O)N[C@@H](Cc4ccc(-c5cccs5)cc4)C(=O)N(C)C)ccc23)CC1 [Example 148, 2-Amino-N-{(1S)-2-(dimethylamino)-2-oxo-1-[4-(2-thienyl)benzyl]ethyl}-4-(4-methylpiperazin-1-yl)quinazoline-7-carboxamide]
9.6 nM | CN1CCN(c2cc(-c3ccc4c(c3)CN(C(=O)CC3CCC3)CC4)nc(N)n2)CC1 [Example 109, 4-[2-(Cyclobutylacetyl)-1,2,3,4-tetrahydroisoquinolin-7-yl]-6-(4-methylpiperazin-1-yl)pyrimidin-2-amine]
7.9 nM | CCOC(=O)c1cc(C)nc(Oc2cccc(CNC(=O)c3ccc4c(N5CCN(C)CC5)nc(N)nc4c3)c2)c1C#N [Example 186, Ethyl 2-{3-[({[2-amino-4-(4-methylpiperazin-1-yl)quinazolin-7-yl]carbonyl}amino)methyl]phenoxy}-3-cyano-6-methylisonicotinate]
7.5 nM | COc1ccc(Oc2cccc(CNC(=O)c3ccc4c(N5CCN(C)CC5)nc(N)nc4c3)c2)cc1 [Example 178, 2-Amino-N-[3-(4-methoxyphenoxy)benzyl]-4-(4-methylpiperazin-1-yl)quinazoline-7-carboxamide]
3.4 nM | CN1CCN(c2nc(N)nc3cc(C(=O)NCc4cccc(OCc5cccc6nsnc56)c4)ccc23)CC1 [Example 195, 2-Amino-N-[3-(2,1,3-benzothiadiazol-4-ylmethoxy)benzyl]-4-(4-methylpiperazin-1-yl)quinazoline-7-carboxamide]
